# Laboratory results published in PubChem BioAssay (NCI).
#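 Tested at 5 concentrations; 48 h exposure; 96-well plates; endpoints linearly interpolated, else capped at highest concentration. GI50 = concentration required for 50% inhibition of growth. The concentration for full growth arrest is given as TGI.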
# Experiments:
# Test in all cases: inhibition of tumour cell growth, NCI panel, 48 h
# [1] = test system: BT-549 breast
# [2] = test system: HCC-2998 colon
# [3] = test system: KM12 colon
# [4] = test system: UACC-62 melanoma
# [5] = test system: HCT-15 colon
# [6] = test system: EKVX NSCLC
# [7] = test system: SF-268 CNS
# [8] = test system: MDA-MB-231 breast
# [9] = test system: M14 melanoma
# [10] = test system: K-562 leukemia
# [11] = test system: NCI-H226 lung
# [12] = test system: CAKI-1 renal
# [13] = test system: NCI-H460 lung
# [14] = test system: SNB-19 CNS
# [15] = test system: OVCAR-8 ovarian
# [16] = test system: DU-145 prostate
# [17] = test system: CCRF-CEM leukemia
# [18] = test system: MCF7 breast
# [19] = test system: HCT-116 colon
# [20] = test system: SF-295 CNS
# [21] = test system: SK-MEL-2 melanoma
# [22] = test system: MDA-MB-435
# [23] = test system: OVCAR-5 ovarian
# [24] = test system: TK-10 renal
# [25] = test system: RPMI-8226 leukemia
# [26] = test system: COLO 205 colon
# [27] = test system: SK-MEL-5 melanoma
# [28] = test system: SK-OV-3 ovarian
# [29] = test system: SNB-75 CNS
# [30] = test system: NCI/ADR-RES ovarian
# [31] = test system: ACHN renal
# [32] = test system: HOP-62 NSCLC
# [33] = test system: SW-620 colon
# [34] = test system: HS 578T breast
# [35] = test system: A498 renal
# [36] = test system: OVCAR-3 ovarian
# [37] = test system: A549 NSCLC
# [38] = test system: LOX IMVI melanoma
# [39] = test system: T-47D breast
# [40] = test system: SK-MEL-28 melanoma
# [41] = test system: UO-31 renal
# [42] = test system: NCI-H522 lung
# [43] = test system: HL-60(TB) leukemia
# [44] = test system: HT29 colon
# [45] = test system: MALME-3M melanoma
# [46] = test system: SN12C renal
# [47] = test system: OVCAR-4 ovarian
# [48] = test system: RXF 393 renal
# [49] = test system: SF-539 CNS
# [50] = test system: SR leukemia
# [51] = test system: U251 CNS
# [52] = test system: HOP-92 NSCLC
# [53] = test system: PC-3 prostate
# [54] = test system: UACC-257 melanoma
# [55] = test system: MOLT-4 leukemia
# [56] = test system: 786-0 renal
smiles,measurement,setting,value
Cn1cc(-c2cc(N)n3nc(-c4cn(C)c5ccc(F)cc45)cc3n2)c2cc(F)ccc21,GI50,[1],1760 nM
same,TGI,[1],3510 nM
same,GI50,[2],1740 nM
same,TGI,[2],3240 nM
same,GI50,[3],1840 nM
same,TGI,[3],3560 nM
same,GI50,[4],1710 nM
same,TGI,[4],3280 nM
same,GI50,[5],1850 nM
same,TGI,[5],3940 nM
same,GI50,[6],1730 nM
same,TGI,[6],3500 nM
same,GI50,[7],1890 nM
same,TGI,[7],3950 nM
same,GI50,[8],2000 nM
same,TGI,[8],3790 nM
same,GI50,[9],1680 nM
same,TGI,[9],3350 nM
same,GI50,[10],2790 nM
same,TGI,[10],10000 nM
same,GI50,[11],6500 nM
same,TGI,[11],27800 nM
same,GI50,[12],2040 nM
same,TGI,[12],4420 nM
same,GI50,[13],1900 nM
same,TGI,[13],3750 nM
same,GI50,[14],2010 nM
same,TGI,[14],4110 nM
same,GI50,[15],1820 nM
same,TGI,[15],3530 nM
same,GI50,[16],1800 nM
same,TGI,[16],3380 nM
same,GI50,[17],2750 nM
same,TGI,[17],7920 nM
same,GI50,[18],1670 nM
same,TGI,[18],3190 nM
same,GI50,[19],1850 nM
same,TGI,[19],3570 nM
same,GI50,[20],1940 nM
same,TGI,[20],3730 nM
same,GI50,[21],2110 nM
same,TGI,[21],5970 nM
same,GI50,[22],1730 nM
same,TGI,[22],3380 nM
same,GI50,[23],1930 nM
same,TGI,[23],4100 nM
same,GI50,[24],1620 nM
same,TGI,[24],5910 nM
same,GI50,[25],2640 nM
same,TGI,[25],8010 nM
same,GI50,[26],1750 nM
same,TGI,[26],3180 nM
same,GI50,[27],1710 nM
same,TGI,[27],3170 nM
same,GI50,[28],20900 nM
same,TGI,[28],40500 nM
same,GI50,[29],2290 nM
same,TGI,[29],12400 nM
same,GI50,[30],2060 nM
same,TGI,[30],4600 nM
same,GI50,[31],1740 nM
same,TGI,[31],3130 nM
same,GI50,[32],1990 nM
same,TGI,[32],4310 nM
same,GI50,[33],1780 nM
same,TGI,[33],3410 nM
same,GI50,[34],2450 nM
same,TGI,[34],5900 nM
same,GI50,[35],1940 nM
same,TGI,[35],6180 nM
same,GI50,[36],1740 nM
same,TGI,[36],3160 nM
same,GI50,[37],1560 nM
same,TGI,[37],3010 nM
same,GI50,[38],2570 nM
same,TGI,[38],4220 nM
same,GI50,[39],1750 nM
same,TGI,[39],3690 nM
same,GI50,[40],1790 nM
same,TGI,[40],3230 nM
same,GI50,[41],1520 nM
same,TGI,[41],2950 nM
same,GI50,[42],1620 nM
same,TGI,[42],3280 nM
same,GI50,[43],1830 nM
same,TGI,[43],5040 nM
same,GI50,[44],1640 nM
same,TGI,[44],3200 nM
same,GI50,[45],1840 nM
same,TGI,[45],3570 nM
same,GI50,[46],1900 nM
same,TGI,[46],3660 nM
same,GI50,[47],1900 nM
same,TGI,[47],3900 nM
same,GI50,[48],1830 nM
same,TGI,[48],3530 nM
same,GI50,[49],1900 nM
same,TGI,[49],3450 nM
same,GI50,[50],1970 nM
same,TGI,[50],8400 nM
same,GI50,[51],1680 nM
same,TGI,[51],3170 nM
same,GI50,[52],1900 nM
same,TGI,[52],3500 nM
same,GI50,[53],1890 nM
same,TGI,[53],3840 nM
same,GI50,[54],1780 nM
same,TGI,[54],3580 nM
same,GI50,[55],2310 nM
same,TGI,[55],7010 nM
same,GI50,[56],1500 nM
same,TGI,[56],3000 nM
Cc1[nH]c(C(=O)Nc2ccccc2OCc2cccc(C(=O)N3CCC[C@@H](N)C3)c2)c(Cl)c1Cl,GI50,[1],1780 nM
same,TGI,[1],3430 nM
same,GI50,[3],1820 nM
same,TGI,[3],3400 nM
same,GI50,[4],1600 nM
same,TGI,[4],3090 nM
same,GI50,[8],1770 nM
same,TGI,[8],3500 nM
same,GI50,[10],1130 nM
same,TGI,[10],2500 nM
same,GI50,[12],1630 nM
same,TGI,[12],3170 nM
same,GI50,[13],1930 nM
same,TGI,[13],3760 nM
same,GI50,[15],2060 nM
same,TGI,[15],4570 nM
same,GI50,[16],1790 nM
same,TGI,[16],3260 nM
same,GI50,[17],1240 nM
same,TGI,[17],2990 nM
same,GI50,[20],1790 nM
same,TGI,[20],3360 nM
same,GI50,[23],1570 nM
same,TGI,[23],2980 nM
same,GI50,[24],2040 nM
same,TGI,[24],3700 nM
same,GI50,[27],1720 nM
same,TGI,[27],3110 nM
same,GI50,[28],1800 nM
same,TGI,[28],3390 nM
same,GI50,[29],1330 nM
same,TGI,[29],2710 nM
same,GI50,[31],1610 nM
same,TGI,[31],3020 nM
same,GI50,[33],1630 nM
same,TGI,[33],3120 nM
same,GI50,[35],1560 nM
same,TGI,[35],3010 nM
same,GI50,[36],1710 nM
same,TGI,[36],3150 nM
same,GI50,[41],1330 nM
same,TGI,[41],2800 nM
same,GI50,[43],1120 nM
same,TGI,[43],2670 nM
same,GI50,[46],1770 nM
same,TGI,[46],3410 nM
same,GI50,[48],1640 nM
same,TGI,[48],3300 nM
same,GI50,[49],1570 nM
same,TGI,[49],2960 nM
same,GI50,[50],254 nM
same,TGI,[50],771 nM
same,GI50,[52],1060 nM
same,TGI,[52],2620 nM
same,GI50,[53],1530 nM
same,TGI,[53],3060 nM
same,GI50,[55],1690 nM
same,TGI,[55],3430 nM
